Data on 23 molecules can be found in patent publication US20080200454A1, “CARBON-LINKED TETRAHYDRO-PYRAZOLO-PYRIDINE MODULATORS OF CATHEPSIN S” (priority 2007, published 2008).

As usually defined, the IC50 is the concentration at which inhibition is half-maximal.

In one assay the target is Recombinant human cathepsin S (CatS) (Homo sapiens, UniProt P25774). The assay is described as follows: Recombinant human cathepsin S (CatS) inhibition assay, fluorogenic substrate Z-Valine-Valine-Arginine-AMC.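 Also: Baculovirus-expressed CatS in pH 5.0 sodium acetate buffer with DTT and NaCl, fluorescence read each minute over 20 min, inhibition derived from rate slope.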
Chain of Recombinant human cathepsin S (CatS) (P25774 115-331): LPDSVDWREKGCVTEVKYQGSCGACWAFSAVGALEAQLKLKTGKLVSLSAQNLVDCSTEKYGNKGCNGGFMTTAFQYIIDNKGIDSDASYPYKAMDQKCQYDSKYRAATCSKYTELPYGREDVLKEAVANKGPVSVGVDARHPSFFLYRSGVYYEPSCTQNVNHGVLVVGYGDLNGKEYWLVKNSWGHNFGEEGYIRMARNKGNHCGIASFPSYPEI
Details: not given
For the molecule `CC(NCc1cccc(C#Cc2cc(-c3nn(CCCN4CCOCC4)c4c3CN(S(C)(=O)=O)CC4)ccc2Cl)c1)c1ccccc1` (centres unmarked) [Example 507, N-{[3-({2-Chloro-5-[5-(methylsulfonyl)-1-(3-morpholin-4-ylpropyl)-4,5,6,7-tetrahydro-1H-pyrazolo[4,3-c]pyridin-3-yl]phenyl}ethynyl)phenyl]methyl}-1-phenylethanamine], the IC50 came to 570 nM.
Turning to `CS(=O)(=O)N1CCc2c(c(-c3ccc(Cl)c(C#Cc4cccc(CNCC5CCCO5)c4)c3)nn2CCCN2CCOCC2)C1` (centres unmarked) [Example 510, 1-[3-({2-Chloro-5-[5-(methylsulfonyl)-1-(3-morpholin-4-ylpropyl)-4,5,6,7-tetrahydro-1H-pyrazolo[4,3-c]pyridin-3-yl]phenyl}ethynyl)phenyl]-N-(tetrahydrofuran-2-ylmethyl)methanamine], the IC50 is 450 nM.
On to `NC(=O)N1CCc2c(c(-c3ccc(Cl)c(C#Cc4cccc(CNCc5ccccc5Cl)c4)c3)nn2CCCN2CCSCC2)C1` [Example 513, 3-(4-Chloro-3-{[3-({[(2-chlorophenyl)methyl]amino}methyl)phenyl]ethynyl}phenyl)-1-(3-thiomorpholin-4-ylpropyl)-1,4,6,7-tetrahydro-5H-pyrazolo[4,3-c]pyridine-5-carboxamide], for which the IC50 amounted to 230 nM.
As to `CC(C)(C)OC(=O)N1CCc2cc(C#Cc3cc(-c4nn(CCCN5CCOCC5)c5c4CN(S(C)(=O)=O)CC5)ccc3Cl)ccc2C1=O` [Example 525, 1,1-Dimethylethyl 6-({2-chloro-5-[5-(methylsulfonyl)-1-(3-morpholin-4-ylpropyl)-4,5,6,7-tetrahydro-1H-pyrazolo[4,3-c]pyridin-3-yl]phenyl}ethynyl)-1-oxo-3,4-dihydroisoquinoline-2(1H)-carboxylate], the IC50 amounted to 350 nM.
On to `CN(Cc1ccccc1)Cc1cccc(CCc2cc(-c3nn(CCCN4CCOCC4)c4c3CN(S(C)(=O)=O)CC4)ccc2Cl)c1` [Example 530, 1-[3-(2-{2-Chloro-5-[5-(methylsulfonyl)-1-(3-morpholin-4-ylpropyl)-4,5,6,7-tetrahydro-1H-pyrazolo[4,3-c]pyridin-3-yl]phenyl}ethyl)phenyl]-N-methyl-N-(phenylmethyl)methanamine], for which the IC50 worked out at 1330 nM.

The assay is the same for the next values; noted with them: CatS IC50.
Take `Cc1cccc(CNCc2ccc(C#Cc3cc(-c4nn(CCCN5CCSCC5)c5c4CN(C(N)=O)CC5)ccc3Cl)cc2)c1` [Example 508, 3-(4-Chloro-3-{[4-({[(3-methylphenyl)methyl]amino}methyl)phenyl]ethynyl}phenyl)-1-(3-thiomorpholin-4-ylpropyl)-1,4,6,7-tetrahydro-5H-pyrazolo[4,3-c]pyridine-5-carboxamide]: the IC50 was found to be 110 nM.
For `CS(=O)(=O)N1CCc2c(c(-c3ccc(Cl)c(C#Cc4cccc(CNCCCO)c4)c3)nn2CCCN2CCOCC2)C1` [Example 509, 3-({[3-({2-Chloro-5-[5-(methylsulfonyl)-1-(3-morpholin-4-ylpropyl)-4,5,6,7-tetrahydro-1H-pyrazolo[4,3-c]pyridin-3-yl]phenyl}ethynyl)phenyl]methyl}amino)propan-1-ol], the IC50 worked out at 500 nM.
For `CS(=O)(=O)N1CCc2c(c(-c3ccc(Cl)c(C#Cc4cccc(CNc5ccccc5)c4)c3)nn2CCCN2CCOCC2)C1` [Example 511, N-{[3-({2-Chloro-5-[5-(methylsulfonyl)-1-(3-morpholin-4-ylpropyl)-4,5,6,7-tetrahydro-1H-pyrazolo[4,3-c]pyridin-3-yl]phenyl}ethynyl)phenyl]methyl}aniline], the IC50 is 1610 nM.
In the case of `C[C@H]1COCCN1CCCn1nc(-c2ccc(Cl)c(C#Cc3ccc4c(c3)CCN(C3CC3)C4)c2)c2c1CCN(S(C)(=O)=O)C2` [Example 512, 6-({2-Chloro-5-[1-{3-[(3S)-3-methylmorpholin-4-yl]propyl}-5-(methylsulfonyl)-4,5,6,7-tetrahydro-1H-pyrazolo[4,3-c]pyridin-3-yl]phenyl}ethynyl)-2-cyclopropyl-1,2,3,4-tetrahydroisoquinoline], the IC50 is 220 nM.
For `NC(=O)N1CCc2c(c(-c3ccc(Cl)c(C#Cc4cccc(CNCc5cccc(Cl)c5)c4)c3)nn2CCCN2CCSCC2)C1` [Example 514, 3-(4-Chloro-3-{[3-({[(3-chlorophenyl)methyl]amino}methyl)phenyl]ethynyl}phenyl)-1-(3-thiomorpholin-4-ylpropyl)-1,4,6,7-tetrahydro-5H-pyrazolo[4,3-c]pyridine-5-carboxamide], the IC50 was found to be 140 nM.
Regarding `NC(=O)N1CCc2c(c(-c3ccc(Cl)c(C#Cc4cccc(CNCc5ccccc5F)c4)c3)nn2CCCN2CCSCC2)C1` [Example 515, 3-(4-Chloro-3-{[3-({[(2-fluorophenyl)methyl]amino}methyl)phenyl]ethynyl}phenyl)-1-(3-thiomorpholin-4-ylpropyl)-1,4,6,7-tetrahydro-5H-pyrazolo[4,3-c]pyridine-5-carboxamide], the IC50 came to 250 nM.
Regarding `NC(=O)N1CCc2c(c(-c3ccc(Cl)c(C#Cc4cccc(CNCc5ccc(F)cc5)c4)c3)nn2CCCN2CCSCC2)C1` [Example 517, 3-(4-Chloro-3-{[3-({[(4-fluorophenyl)methyl]amino}methyl)phenyl]ethynyl}phenyl)-1-(3-thiomorpholin-4-ylpropyl)-1,4,6,7-tetrahydro-5H-pyrazolo[4,3-c]pyridine-5-carboxamide], the IC50 came out at 190 nM.
`CN1CCc2cc(C#Cc3cc(-c4nn(CCCN5CCOCC5)c5c4CN(S(C)(=O)=O)CC5)ccc3Cl)ccc2C1` [Example 518, 6-({2-Chloro-5-[5-(methylsulfonyl)-1-(3-morpholin-4-ylpropyl)-4,5,6,7-tetrahydro-1H-pyrazolo[4,3-c]pyridin-3-yl]phenyl}ethynyl)-2-methyl-1,2,3,4-tetrahydroisoquinoline]: the IC50 is 390 nM.
With `C[C@H]1COCCN1CCCn1nc(-c2ccc(Cl)c(C#Cc3ccc4c(c3)CCN(C)C4)c2)c2c1CCN(S(C)(=O)=O)C2` [Example 519, 6-({2-Chloro-5-[1-{3-[(3S)-3-methylmorpholin-4-yl]propyl}-5-(methylsulfonyl)-4,5,6,7-tetrahydro-1H-pyrazolo[4,3-c]pyridin-3-yl]phenyl}ethynyl)-2-methyl-1,2,3,4-tetrahydroisoquinoline], the IC50 amounted to 400 nM.
As to `CC(C)CNCc1cccc(C#Cc2cc(-c3nn(CCCN4CCOCC4)c4c3CN(S(C)(=O)=O)CC4)ccc2Cl)c1` [Example 520, N-{[3-({2-Chloro-5-[5-(methylsulfonyl)-1-(3-morpholin-4-ylpropyl)-4,5,6,7-tetrahydro-1H-pyrazolo[4,3-c]pyridin-3-yl]phenyl}ethynyl)phenyl]methyl}-2-methylpropan-1-amine], the IC50 was 440 nM.
Regarding `CS(=O)(=O)N1CCc2c(c(-c3ccc(Cl)c(C#Cc4cccc(CNCc5cccnc5)c4)c3)nn2CCCN2CCOCC2)C1` [Example 521, 1-[3-({2-Chloro-5-[5-(methylsulfonyl)-1-(3-morpholin-4-ylpropyl)-4,5,6,7-tetrahydro-1H-pyrazolo[4,3-c]pyridin-3-yl]phenyl}ethynyl)phenyl]-N-(pyridin-3-ylmethyl)methanamine], the IC50 stood at 370 nM.
`CS(=O)(=O)N1CCc2c(c(-c3ccc(Cl)c(C#Cc4cccc(CNCc5ccncc5)c4)c3)nn2CCCN2CCOCC2)C1` [Example 522, 1-[3-({2-Chloro-5-[5-(methylsulfonyl)-1-(3-morpholin-4-ylpropyl)-4,5,6,7-tetrahydro-1H-pyrazolo[4,3-c]pyridin-3-yl]phenyl}ethynyl)phenyl]-N-(pyridin-4-ylmethyl)methanamine]: the IC50 was determined as 330 nM.
Turning to `CC(C)CN1CCc2cc(C#Cc3cc(-c4nn(CCCN5CCOCC5)c5c4CN(S(C)(=O)=O)CC5)ccc3Cl)ccc2C1` [Example 523, 6-({2-Chloro-5-[5-(methylsulfonyl)-1-(3-morpholin-4-ylpropyl)-4,5,6,7-tetrahydro-1H-pyrazolo[4,3-c]pyridin-3-yl]phenyl}ethynyl)-2-(2-methylpropyl)-1,2,3,4-tetrahydroisoquinoline], the IC50 came out at 530 nM.
Turning to `CS(=O)(=O)c1ccc(CNCc2cccc(C#Cc3cc(-c4nn(CCCN5CCOCC5)c5c4CN(S(C)(=O)=O)CC5)ccc3Cl)c2)cc1` [Example 524, 1-[3-({2-Chloro-5-[5-(methylsulfonyl)-1-(3-morpholin-4-ylpropyl)-4,5,6,7-tetrahydro-1H-pyrazolo[4,3-c]pyridin-3-yl]phenyl}ethynyl)phenyl]-N-{[4-(methylsulfonyl)phenyl]methyl}methanamine], the 50% inhibitory concentration (IC50) was found to be 530 nM.
On to `CCOC(=O)CN1CCc2cc(C#Cc3cc(-c4nn(CCCN5CCOCC5)c5c4CN(S(C)(=O)=O)CC5)ccc3Cl)ccc2C1` [Example 526, Ethyl [6-({2-chloro-5-[5-(methylsulfonyl)-1-(3-morpholin-4-ylpropyl)-4,5,6,7-tetrahydro-1H-pyrazolo[4,3-c]pyridin-3-yl]phenyl}ethynyl)-3,4-dihydroisoquinolin-2(1H)-yl]acetate], for which the IC50 is 370 nM.
In the case of `C=CCN1CCc2cc(C#Cc3cc(-c4nn(CCCN5CCOCC5)c5c4CN(S(C)(=O)=O)CC5)ccc3Cl)ccc2C1` [Example 527, 6-({2-Chloro-5-[5-(methylsulfonyl)-1-(3-morpholin-4-ylpropyl)-4,5,6,7-tetrahydro-1H-pyrazolo[4,3-c]pyridin-3-yl]phenyl}ethynyl)-2-prop-2-en-1-yl-1,2,3,4-tetrahydroisoquinoline], the IC50 was determined as 300 nM.
With `CN(Cc1ccccc1)Cc1cccc(C#Cc2cc(-c3nn(CCCN4CCOCC4)c4c3CN(S(C)(=O)=O)CC4)ccc2Cl)c1` [Example 528, 1-[3-({2-Chloro-5-[5-(methylsulfonyl)-1-(3-morpholin-4-ylpropyl)-4,5,6,7-tetrahydro-1H-pyrazolo[4,3-c]pyridin-3-yl]phenyl}ethynyl)phenyl]-N-methyl-N-(phenylmethyl)methanamine], the IC50 was determined as 580 nM.
With `C[C@H]1COCCN1C[C@@H](O)Cn1nc(-c2ccc(Cl)c(C#Cc3ccc(CNCc4ccc(Cl)cc4)cc3)c2)c2c1CCN(S(C)(=O)=O)C2` [Example 529, (2R)-1-[3-(4-Chloro-3-{[4-({[(4-chlorophenyl)methyl]amino}methyl)phenyl]ethynyl}phenyl)-5-(methylsulfonyl)-4,5,6,7-tetrahydro-1H-pyrazolo[4,3-c]pyridin-1-yl]-3-[(3S)-3-methylmorpholin-4-yl]propan-2-ol], the IC50 amounted to 120 nM.
